According to publication PMC7443477 (British Journal of Pharmacology, 2020):

How the values were obtained:
Assay type in all cases: cell-based
[1] = target: LPA1 receptor (native, systemic sclerosis dermal fibroblasts) (Homo sapiens, UniProt Q92633); assay: FLIPR calcium flux, primary SSc dermal fibroblasts; details: agonist; 0.3% fatty acid-free human serum albumin; Gi/Go coupled
LPA3 receptor = target: T1, LPA3 receptor (Homo sapiens, UniProt Q9UBY5); assay: FLIPR calcium flux, CHO cells
T1 sequence (Q9UBY5 1-353): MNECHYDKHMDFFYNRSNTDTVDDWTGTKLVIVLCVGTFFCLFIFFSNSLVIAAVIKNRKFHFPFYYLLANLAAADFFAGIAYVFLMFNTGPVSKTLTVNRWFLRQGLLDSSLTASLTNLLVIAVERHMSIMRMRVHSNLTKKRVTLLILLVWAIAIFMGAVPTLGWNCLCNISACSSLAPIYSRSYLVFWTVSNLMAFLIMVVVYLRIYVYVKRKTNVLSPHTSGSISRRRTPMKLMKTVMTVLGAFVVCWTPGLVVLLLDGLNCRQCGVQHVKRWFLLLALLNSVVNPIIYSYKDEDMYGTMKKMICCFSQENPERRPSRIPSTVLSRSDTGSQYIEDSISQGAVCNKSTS

LPA5 receptor = LPA5 receptor (Homo sapiens, UniProt Q9H1C0); assay: FLIPR calcium flux, CHO cells
LPA2 receptor = LPA2 receptor (Homo sapiens, UniProt Q9HBW0); assay: FLIPR calcium flux, CHO cells
LPA2 receptor, sequence (Q9HBW0 whole entry): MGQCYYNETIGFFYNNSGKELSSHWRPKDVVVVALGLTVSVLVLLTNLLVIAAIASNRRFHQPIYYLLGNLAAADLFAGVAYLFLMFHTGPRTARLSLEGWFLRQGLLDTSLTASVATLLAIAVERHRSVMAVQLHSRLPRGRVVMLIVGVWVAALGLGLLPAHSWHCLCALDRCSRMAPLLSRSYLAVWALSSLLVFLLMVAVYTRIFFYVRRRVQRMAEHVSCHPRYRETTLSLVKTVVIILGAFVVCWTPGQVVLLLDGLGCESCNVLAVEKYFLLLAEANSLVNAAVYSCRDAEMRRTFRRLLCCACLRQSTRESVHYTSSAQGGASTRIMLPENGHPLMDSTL

LPA1 receptor (native, systemic sclerosis dermal fibroblasts), sequence (Q92633 whole entry): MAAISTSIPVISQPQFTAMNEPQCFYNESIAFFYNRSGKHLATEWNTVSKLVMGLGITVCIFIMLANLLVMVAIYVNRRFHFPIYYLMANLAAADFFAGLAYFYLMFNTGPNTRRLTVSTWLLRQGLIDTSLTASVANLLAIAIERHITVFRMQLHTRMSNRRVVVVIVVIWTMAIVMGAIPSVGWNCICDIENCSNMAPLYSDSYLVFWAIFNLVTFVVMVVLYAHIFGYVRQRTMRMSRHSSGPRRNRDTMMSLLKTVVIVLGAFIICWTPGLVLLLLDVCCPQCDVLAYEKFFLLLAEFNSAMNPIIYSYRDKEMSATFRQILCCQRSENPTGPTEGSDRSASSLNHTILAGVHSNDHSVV
LPA5 receptor, sequence (Q9H1C0 whole entry): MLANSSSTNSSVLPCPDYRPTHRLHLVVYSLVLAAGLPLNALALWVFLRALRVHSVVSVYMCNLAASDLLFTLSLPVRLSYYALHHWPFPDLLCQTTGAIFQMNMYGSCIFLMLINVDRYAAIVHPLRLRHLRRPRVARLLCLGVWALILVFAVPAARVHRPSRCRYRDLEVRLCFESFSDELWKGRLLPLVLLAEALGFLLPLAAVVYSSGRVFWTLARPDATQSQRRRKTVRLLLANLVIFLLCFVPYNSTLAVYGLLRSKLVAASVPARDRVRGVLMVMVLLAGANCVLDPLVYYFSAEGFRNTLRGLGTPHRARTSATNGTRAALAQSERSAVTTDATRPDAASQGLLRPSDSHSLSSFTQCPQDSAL

Compound | EC50 [1] | IC50 (LPA3 receptor) | IC50 (LPA5 receptor) | IC50 (LPA2 receptor)
CCCCCCCC/C=C\CCCCCCCC(=O)OC[C@@H](O)COP(=O)(O)O [LPA 18:1] | 0.15 ± 0.05 µM | – | – | –
COc1ccc(C(=O)NC2(C(=O)O)Cc3ccccc3C2)cc1OCCc1cccc(C)c1 [SAR100842, 2‐(4‐methoxy‐3‐(2‐m‐tolyl‐ethoxy)‐benzoylamino)‐indan‐2‐carboxylic acid] | – | > 10 µM | > 10 µM | > 10 µM
